Measured values reported in publication PMC3292765 (Chemistry & biology, 2012).
Like-named read-outs stand apart in the source and are kept apart here.

Tests used:
p67^phox [1] = biological target: T1, p67^phox (Homo sapiens, UniProt P19878); experiment: microscale thermophoresis with labeled recombinant protein; format: binding
T1 sequence (P19878 1-212): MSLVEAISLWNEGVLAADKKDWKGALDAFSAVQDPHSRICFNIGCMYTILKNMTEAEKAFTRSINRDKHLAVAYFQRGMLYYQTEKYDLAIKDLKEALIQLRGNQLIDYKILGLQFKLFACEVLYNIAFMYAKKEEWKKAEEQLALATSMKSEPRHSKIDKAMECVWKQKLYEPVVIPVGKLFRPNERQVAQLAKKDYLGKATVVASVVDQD

p67^phox [2] = biological target: T1, p67^phox; experiment: as above; format: binding; remark: listed apart in the source

Kd (p67^phox [1]) [nM]	Kd (p67^phox [2]) [nM]	Compound
~150		O=[N+]([O-])c1cccc(C2Nc3ccc([N+](=O)[O-])cc3C3C=CCC32)c1 (centres unmarked) [compound 16, Phox-I2]
	~100	Phox-I1
